Target: DHFR (E. coli) (Escherichia coli, UniProt P0ABQ4)
Test: 50% inhibition of the bacterial dihydrofolic acid reductase (DHFR), E. coli
Format: biochemical
Excerpt: The compounds of formula I have antibacterial activity. More specifically, the compounds of formula I inhibit the bacterial dihydrofolic acid reductase (DHFR) and, moreover, potentiate the activity of sulfonamides and other dihydrofolic acid synthetase inhibitors. Exemplary of the sulfonamides which are potentiated by the compounds provided by the present invention are sulfadiazine, sulfadimethoxine, sulfadoxine, sulfamethoxazole, sulfisoxazole, sulfamoxole, 3-sulfanilamido-4,5-dimethylisoxazole, sulfalene, sulfamerazine, sulfameter, sulfamethazine and 6-methoxy-4-sulfanilamido-pyrimidine. […] Quantitatively, however, compared with known compounds, the compounds of formula I of the present invention are characterized by lower 50% inhibitory concentrations of the bacterial DHFR, for example, in the case of E. coli, and by substantially higher Q-values, that is 50% inhibition of the DHFR in the case of rats/50% inhibition of the DHFR in the case of E. coli, which represents a measurement of the selectivity of the inhibition of the bacterial DHFR.

Row | Compound | IC50 [nM]
1 | C=C(C)c1c(OCC)cc(Cc2cnc(N)nc2N)cc1OCC [Compound 1, 2,4-diamino-5-(3,5-diethoxy-4-isopropenylbenzyl)-pyrimidine] | 2.2
2 | C=C(C)c1c(OC)cc(Cc2cnc(N)nc2N)cc1OC [Compound 2, 2,4-diamino-5-(4-isopropenyl-3,5-dimethoxybenzyl)-pyrimidine] | 3.4
3 | C=C(C)c1c(OC)cc(Cc2cnc(N)nc2N)cc1OCC [Compound 3, 2,4-diamino-5-(3-ethoxy-4-isopropenyl-5-methoxybenzyl)-pyrimidine] | 3.2

Reference: patent US4203980A, “Benzylpyrimidine derivatives” (Hoffmann-La Roche Inc., priority 1977, dated 1980)
